{
  "source": "paper PMC5785774",
  "about": "(ACS Central Science, 2018)",
  "biological_target": "PKCδ-C1b (Mus musculus, UniProt P28867)",
  "sequence (P28867 231-281 limits assumed)": "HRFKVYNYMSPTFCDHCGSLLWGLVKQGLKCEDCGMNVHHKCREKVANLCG",
  "assay": "Kd measured in the peptide-phospholipid composition used for NMR",
  "type": "binding",
  "data": [
    {"smiles": "CCCC(=O)O[C@@H]1[C@@H](C)[C@@]2(O)[C@@H](C=C(CO)C[C@]3(O)C(=O)C(C)=C[C@@H]23)[C@@H]2C(C)(C)[C@]12OC(=O)CCC", "note": "[phorbol 12,13-dibutyrate]", "values": [
      {"measurement": "Kd", "value": 1.5, "unit": "nM"}
    ]}
  ]
}
